Reference: ChEMBL document CHEMBL2346539, “Effects of geraniin on osteoclastic bone resorption and matrix metalloproteinase-9 expression” (2013)
Calls of active or inactive are those of the source. The calls are words filed in the database; no cut-off is given here.

Key:
[1] = Reduction of MMP9 protein expression in rat osteoclasts assessed as reduction in integral optical density by immunocytochemistry analysis; format: functional, cell-based; details: Osteoclast
[2] = Reduction of MMP9 protein expression in rat osteoclasts assessed as reduction in mean optical density by immunocytochemistry analysis; format: functional, cell-based; details: Osteoclast
[3] = Reduction of MMP9 mRNA expression in rat osteoclasts assessed as reduction in integral optical density at 10^-8 mol/L by in situ hybridization assay; format: functional, cell-based; details: Osteoclast
[4] = Reduction of MMP9 mRNA expression in rat osteoclasts assessed as reduction in mean optical density at 10^-8 mol/L by in situ hybridization assay; format: functional, cell-based; details: Osteoclast
Osteoclast [5] = assay: Inhibition of rat osteoclasts-induced resorption in bovine bone co-cultured for 72 hrs using toluidine blue staining by SEM analysis; format: functional, cell-based
Osteoclast [6] = assay: Reduction in number of resorption pits in rat osteoclasts-stimulated bovine bone at 10^-8 mol/L co-cultured for 72 hrs using toluidine blue staining by SEM analysis; format: functional, cell-based
Osteoclast [7] = assay: Inhibition of rat osteoclasts-induced resorption in bovine bone at 10^-8 mol/L co-cultured for 72 hrs using toluidine blue staining by SEM analysis; format: functional, cell-based
Bone [8] = assay: Inhibition of osteoclastogenesis in Sprague-Dawley rat bone assessed as inhibition of fusion index at 10^-10 mol/L after 72 hrs by microscopy; format: functional; details: Bone element
Bone [9] = assay: Inhibition of osteoclastogenesis in Sprague-Dawley rat bone assessed as inhibition of fusion index at 10^-11 mol/L after 72 hrs by microscopy; format: functional; details: Bone element
Bone [10] = assay: Inhibition of osteoclastogenesis in Sprague-Dawley rat bone assessed as inhibition of fusion index at 10^-9 mol/L after 72 hrs by microscopy; format: functional; details: Bone element
Bone [11] = assay: Reduction in number of pre-osteoclasts in Sprague-Dawley rat bone at 10^-8 mol/L after 72 hrs by microscopy; format: functional, tissue-based; details: Bone element
Bone [12] = assay: Inhibition of osteoclastogenesis in Sprague-Dawley rat bone assessed as inhibition of fusion index at 10^-8 mol/L after 72 hrs by microscopy; format: functional; details: Bone element
Bone [13] = assay: Inhibition of osteoclastogenesis in Sprague-Dawley rat bone assessed as decrease in TRAP-positive multi-nucleated cells at 10^-8 mol/L after 72 hrs by microscopy; format: functional, tissue-based; details: Bone element
Bone [14] = assay: Inhibition of osteoclastogenesis in Sprague-Dawley rat bone assessed as decrease in TRAP-positive multi-nucleated cells after 72 hrs by microscopy; format: functional, tissue-based; details: Bone element

SMILES: O=C1O[C@H]2[C@@H]3OC(=O)c4cc(O)c(O)c(O)c4-c4c(cc(O)c(O)c4O)C(=O)OC[C@H]2O[C@@H](OC(=O)c2cc(O)c(O)c(O)c2)[C@@H]3OC(=O)c2cc(O)c(O)c3c2[C@@H]2C1=CC(=O)[C@](O)(O3)C2(O)O [GERANIIN]
- Activity [1]: Dose-dependent effect
- Activity [2]: Dose-dependent effect
- Activity [3]: Active
- Activity [4]: Active
- inhibition (Osteoclast [5]): Dose-dependent effect
- Activity (Osteoclast [6]): Active
- inhibition (Osteoclast [7]): Active
- inhibition at 0.0001 µM (Bone [8]): 9.31%
- inhibition at 10 pM (Bone [9]): 3.05%
- inhibition at 0.001 µM (Bone [10]): 24.2%
- Activity (Bone [11]): Active
- inhibition at 0.01 µM (Bone [12]): 46%
- inhibition (Bone [13]): Active
- inhibition (Bone [14]): Dose-dependent effect
